Results taken from EP0687468A2, “Pharmaceutical composition for suppressing infiltration of eosinophils” (Toyo Boseki Kabushiki Kaisha, priority 1994, dated 1995).

Columns and labels:
[1] = system: infiltration of eosinophils in the airway; experiment: Infiltration of eosinophils into bronchovesicles in rats (ovalbumin induced); type: in vivo; conditions: 10 mg/kg orally 5 minutes before and 5 hours after antigen induction; OA-sensitized male BN rats; bronchial wash 24 hours later
Procedure: An ovalbumin (OA) antigen (10 mg/kg) was intramuscularly administered to male BN rats, and 5 x 10^10 nonvial Bordetella pertussis cells were intraperitoneally administered to sensitize them. Fourteen days later, the rats were exposed to 2% OA to induce infiltration of eosinophils in the airway. Twenty-four hours later, bronchial tubes were washed and infiltrated cells were recovered to count the infiltrated eosinophils. The test compound (10 mg/kg) was orally administered 5 minutes before and 5 hours after the induction with antigen.

[2] = system: adhesion of eosinophils to vascular endothelial cells; experiment: Inhibition of adhesion of eosinophils to TNF-treated HUVEC; type: cell-based; conditions: test compound concentration at TNF treatment and adhesion reaction; HUVEC treated with 100 U/ml TNF for 6 hours; adhesion reaction 20 minutes; human peripheral blood eosinophils
Procedure: Human umbilical vein-derived endothelial cells (HUVEC) were placed in a single layer in a 96 well plate and treated with 100 U/mi tumor necrosis factor (TNF) for 6 hours. The eosinophils obtained from peripheral blood of healthy human were fluorescence-labeled and layered on the TNF-treated HUVEC. After adhesion reaction for 20 minutes, unadhered eosinophils were removed by washing and fluorescent intensity of each well of the plate was measured to determine the eosinophils adhered to the HUVEC. The test compound was added so that the concentration at TNF treatment and adhesion reaction was 10-^SM.

[3] = system: intraperitoneal infiltration of eosinophils; experiment: Intraperitoneal infiltration of eosinophils in rat (Ascaris extract induced); type: in vivo; conditions: 3 mg/kg orally once a day for 9 days; Asc-sensitized male Wistar rats; eosinophils counted 48 hours after antigen induction
Procedure: Ascaris extract (Asc, protein amount 8 mg) was intraperitoneally administered to male Wistar rats to sensitize them. Seven days later, 4 mg protein amount of Asc was intraperitoneally administered to induce intraperitoneal infiltration of eosinophils. Forty-eight hours after the antigen induction, abdominal cavity was washed, and the infiltrated eosinophils were counted. The test compound (3 mg/kg) was orally administered once a day for 9 days from the day of antigen sensitization to one day before recovery of the infiltrated intraperitoneal cells.

SMILES: CC(=O)OCC(=O)Nc1cc(C#N)cc(N)c1Cl [3-(acetoxyacetylamino)-5-amino-4-chlorobenzonitrile]
- Suppression of infiltration of eosinophils (%) [1]: 53%
- Suppression of adhesion of eosinophils (%) [2]: 70%
- Suppression of infiltration of eosinophils (%) [3]: 55%

SMILES: N#Cc1cc(N)c(Cl)c(NC(=O)CO)c1 [3-amino-4-chloro-5-(hydroxyacetylamino)benzonitrile]
- Suppression of infiltration of eosinophils (%) [1]: 48%
- Suppression of adhesion of eosinophils (%) [2]: 74%
- Suppression of infiltration of eosinophils (%) [3]: 54%

SMILES: COCC(=O)Nc1cc(C#N)cc(N)c1Cl [3-amino-4-chloro-5-(methoxyacetylamino)benzonitrile]
- Suppression of infiltration of eosinophils (%) [1]: 56%
- Suppression of adhesion of eosinophils (%) [2]: 62%
- Suppression of infiltration of eosinophils (%) [3]: 42%
